Laboratory results reported in PubChem BioAssay (NCI).
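Cells were grown in 96-well plates and exposed to each compound for 48 hours at five concentrations; endpoints were interpolated linearly between bracketing concentrations, or set to the highest concentration if not reached. The concentration for 50% growth inhibition is given as GI50. TGI is the concentration that stops growth completely.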

Experiments:
Experiment in all cases: growth of human tumour cells (NCI), 48 h
NCI-H226 lung = test system: NCI-H226 lung
DU-145 prostate = test system: DU-145 prostate
COLO 205 colon = test system: COLO 205 colon
HL-60(TB) leukemia = test system: HL-60(TB) leukemia
HCT-116 colon = test system: HCT-116 colon
HOP-62 NSCLC = test system: HOP-62 NSCLC
SK-MEL-5 melanoma = test system: SK-MEL-5 melanoma
NCI/ADR-RES ovarian = test system: NCI/ADR-RES ovarian
UO-31 renal = test system: UO-31 renal
SF-295 CNS = test system: SF-295 CNS
K-562 leukemia = test system: K-562 leukemia
MDA-MB-435 = test system: MDA-MB-435
KM12 colon = test system: KM12 colon
ACHN renal = test system: ACHN renal
SN12C renal = test system: SN12C renal
HCT-15 colon = test system: HCT-15 colon
NCI-H23 lung = test system: NCI-H23 lung
OVCAR-8 ovarian = test system: OVCAR-8 ovarian
HOP-92 NSCLC = test system: HOP-92 NSCLC
HT29 colon = test system: HT29 colon
SF-268 CNS = test system: SF-268 CNS
RXF 393 renal = test system: RXF 393 renal
SW-620 colon = test system: SW-620 colon
A498 renal = test system: A498 renal
IGROV1 ovarian = test system: IGROV1 ovarian
SK-MEL-2 melanoma = test system: SK-MEL-2 melanoma
OVCAR-3 ovarian = test system: OVCAR-3 ovarian
OVCAR-4 ovarian = test system: OVCAR-4 ovarian
MALME-3M melanoma = test system: MALME-3M melanoma
MDA-MB-231 breast = test system: MDA-MB-231 breast
SNB-19 CNS = test system: SNB-19 CNS
RPMI-8226 leukemia = test system: RPMI-8226 leukemia
PC-3 prostate = test system: PC-3 prostate
T-47D breast = test system: T-47D breast
MCF7 breast = test system: MCF7 breast
NCI-H522 lung = test system: NCI-H522 lung
BT-549 breast = test system: BT-549 breast
UACC-257 melanoma = test system: UACC-257 melanoma
SF-539 CNS = test system: SF-539 CNS
EKVX NSCLC = test system: EKVX NSCLC
NCI-H460 lung = test system: NCI-H460 lung
SNB-75 CNS = test system: SNB-75 CNS
U251 CNS = test system: U251 CNS
HS 578T breast = test system: HS 578T breast
LOX IMVI melanoma = test system: LOX IMVI melanoma
SK-MEL-28 melanoma = test system: SK-MEL-28 melanoma
TK-10 renal = test system: TK-10 renal
CAKI-1 renal = test system: CAKI-1 renal
786-0 renal = test system: 786-0 renal
M14 melanoma = test system: M14 melanoma
SK-OV-3 ovarian = test system: SK-OV-3 ovarian
HCC-2998 colon = test system: HCC-2998 colon
OVCAR-5 ovarian = test system: OVCAR-5 ovarian
CCRF-CEM leukemia = test system: CCRF-CEM leukemia
UACC-62 melanoma = test system: UACC-62 melanoma
MOLT-4 leukemia = test system: MOLT-4 leukemia
A549 NSCLC = test system: A549 NSCLC

**Q.** With N#CC(C#N)=C/C=C(\Sc1ccc(F)c(Cl)c1)c1ccc(Cl)cc1 as the compound, how does the GI50 (NCI-H226 lung) read?
**A.** 2.05 µM

**Q.** What about the TGI (NCI-H226 lung) of the same compound?
**A.** 6.25 µM

**Q.** And the GI50 (DU-145 prostate)?
**A.** 1.12 µM

**Q.** And the TGI (DU-145 prostate)?
**A.** 6.77 µM

**Q.** And the GI50 (COLO 205 colon)?
**A.** 2.58 µM

**Q.** And the TGI (COLO 205 colon)?
**A.** > 21.3 µM

**Q.** And the GI50 (HL-60(TB) leukemia)?
**A.** 0.317 µM

**Q.** And the TGI (HL-60(TB) leukemia)?
**A.** 4.48 µM

**Q.** And the GI50 (HCT-116 colon)?
**A.** 0.3 µM

**Q.** And the TGI (HCT-116 colon)?
**A.** 0.799 µM

**Q.** And the GI50 (HOP-62 NSCLC)?
**A.** 1.52 µM

**Q.** What about the TGI (HOP-62 NSCLC) of the same compound?
**A.** 5.78 µM

**Q.** What about the GI50 (SK-MEL-5 melanoma) of the same compound?
**A.** 7.22 µM

**Q.** And the TGI (SK-MEL-5 melanoma)?
**A.** 19.4 µM

**Q.** What about the GI50 (NCI/ADR-RES ovarian) of the same compound?
**A.** 1.11 µM

**Q.** And the TGI (NCI/ADR-RES ovarian)?
**A.** 4.82 µM

**Q.** What about the GI50 (UO-31 renal) of the same compound?
**A.** 0.889 µM

**Q.** And the TGI (UO-31 renal)?
**A.** 2.86 µM

**Q.** And the GI50 (SF-295 CNS)?
**A.** 10.7 µM

**Q.** What about the TGI (SF-295 CNS) of the same compound?
**A.** > 53.2 µM

**Q.** What about the GI50 (K-562 leukemia) of the same compound?
**A.** 0.396 µM

**Q.** And the TGI (K-562 leukemia)?
**A.** 12.6 µM

**Q.** And the GI50 (MDA-MB-435)?
**A.** 1.25 µM

**Q.** What about the TGI (MDA-MB-435) of the same compound?
**A.** 4.29 µM

**Q.** And the GI50 (KM12 colon)?
**A.** 2.74 µM

**Q.** What about the TGI (KM12 colon) of the same compound?
**A.** 13.1 µM

**Q.** And the GI50 (ACHN renal)?
**A.** 0.795 µM

**Q.** And the TGI (ACHN renal)?
**A.** 3.34 µM

**Q.** What about the GI50 (SN12C renal) of the same compound?
**A.** 0.669 µM

**Q.** What about the TGI (SN12C renal) of the same compound?
**A.** 1.93 µM

**Q.** And the GI50 (HCT-15 colon)?
**A.** 0.601 µM

**Q.** And the TGI (HCT-15 colon)?
**A.** 2.01 µM

**Q.** And the GI50 (NCI-H23 lung)?
**A.** 1.14 µM

**Q.** And the TGI (NCI-H23 lung)?
**A.** 5.64 µM

**Q.** And the GI50 (OVCAR-8 ovarian)?
**A.** 0.862 µM

**Q.** What about the TGI (OVCAR-8 ovarian) of the same compound?
**A.** 2.42 µM

**Q.** And the GI50 (HOP-92 NSCLC)?
**A.** 0.947 µM

**Q.** And the TGI (HOP-92 NSCLC)?
**A.** 6.91 µM

**Q.** What about the GI50 (HT29 colon) of the same compound?
**A.** 0.545 µM

**Q.** What about the TGI (HT29 colon) of the same compound?
**A.** 2.24 µM

**Q.** What about the GI50 (SF-268 CNS) of the same compound?
**A.** 2.52 µM

**Q.** What about the TGI (SF-268 CNS) of the same compound?
**A.** 17.8 µM

**Q.** And the GI50 (RXF 393 renal)?
**A.** 0.663 µM

**Q.** What about the TGI (RXF 393 renal) of the same compound?
**A.** 2.12 µM

**Q.** What about the GI50 (SW-620 colon) of the same compound?
**A.** 0.494 µM

**Q.** And the TGI (SW-620 colon)?
**A.** 5.74 µM

**Q.** And the GI50 (A498 renal)?
**A.** 16 µM

**Q.** What about the TGI (A498 renal) of the same compound?
**A.** 32.4 µM

**Q.** And the GI50 (IGROV1 ovarian)?
**A.** 1.09 µM

**Q.** What about the TGI (IGROV1 ovarian) of the same compound?
**A.** 4.29 µM

**Q.** What about the GI50 (SK-MEL-2 melanoma) of the same compound?
**A.** 7.01 µM

**Q.** What about the TGI (SK-MEL-2 melanoma) of the same compound?
**A.** 23.9 µM

**Q.** And the GI50 (OVCAR-3 ovarian)?
**A.** 3.99 µM

**Q.** What about the TGI (OVCAR-3 ovarian) of the same compound?
**A.** 16.3 µM

**Q.** What about the GI50 (OVCAR-4 ovarian) of the same compound?
**A.** 0.918 µM

**Q.** And the TGI (OVCAR-4 ovarian)?
**A.** 7.43 µM

**Q.** And the GI50 (MALME-3M melanoma)?
**A.** 3.26 µM

**Q.** And the TGI (MALME-3M melanoma)?
**A.** 20.4 µM

**Q.** What about the GI50 (MDA-MB-231 breast) of the same compound?
**A.** 0.671 µM

**Q.** And the TGI (MDA-MB-231 breast)?
**A.** 2.02 µM

**Q.** What about the GI50 (SNB-19 CNS) of the same compound?
**A.** 5.48 µM

**Q.** What about the TGI (SNB-19 CNS) of the same compound?
**A.** 28.2 µM

**Q.** What about the GI50 (RPMI-8226 leukemia) of the same compound?
**A.** 0.271 µM

**Q.** What about the TGI (RPMI-8226 leukemia) of the same compound?
**A.** 0.967 µM

**Q.** And the GI50 (PC-3 prostate)?
**A.** 0.787 µM

**Q.** What about the TGI (PC-3 prostate) of the same compound?
**A.** 7.1 µM

**Q.** And the GI50 (T-47D breast)?
**A.** 11.6 µM

**Q.** And the TGI (T-47D breast)?
**A.** 46.3 µM

**Q.** What about the GI50 (MCF7 breast) of the same compound?
**A.** 1.25 µM

**Q.** And the TGI (MCF7 breast)?
**A.** 26.7 µM

**Q.** And the GI50 (NCI-H522 lung)?
**A.** 1.8 µM

**Q.** And the TGI (NCI-H522 lung)?
**A.** 7.71 µM

**Q.** And the GI50 (BT-549 breast)?
**A.** 3.09 µM

**Q.** What about the TGI (BT-549 breast) of the same compound?
**A.** 8.84 µM

**Q.** And the GI50 (UACC-257 melanoma)?
**A.** 6.68 µM

**Q.** And the TGI (UACC-257 melanoma)?
**A.** 19.5 µM

**Q.** And the GI50 (SF-539 CNS)?
**A.** 2.19 µM

**Q.** What about the TGI (SF-539 CNS) of the same compound?
**A.** 6.58 µM

**Q.** And the GI50 (EKVX NSCLC)?
**A.** 14.5 µM

**Q.** What about the TGI (EKVX NSCLC) of the same compound?
**A.** 39.5 µM

**Q.** What about the GI50 (NCI-H460 lung) of the same compound?
**A.** 5.24 µM

**Q.** And the TGI (NCI-H460 lung)?
**A.** 22.7 µM

**Q.** What about the GI50 (SNB-75 CNS) of the same compound?
**A.** 5.62 µM

**Q.** What about the TGI (SNB-75 CNS) of the same compound?
**A.** 16 µM

**Q.** And the GI50 (U251 CNS)?
**A.** 0.72 µM

**Q.** What about the TGI (U251 CNS) of the same compound?
**A.** 2.61 µM

**Q.** And the GI50 (HS 578T breast)?
**A.** 4.78 µM

**Q.** And the TGI (HS 578T breast)?
**A.** 43.5 µM

**Q.** And the GI50 (LOX IMVI melanoma)?
**A.** 0.302 µM

**Q.** And the TGI (LOX IMVI melanoma)?
**A.** 1.12 µM

**Q.** And the TGI (SK-MEL-28 melanoma)?
**A.** 3.53 µM

**Q.** And the GI50 (TK-10 renal)?
**A.** 1.62 µM

**Q.** And the TGI (TK-10 renal)?
**A.** 6.57 µM

**Q.** And the GI50 (CAKI-1 renal)?
**A.** 1.77 µM

**Q.** And the TGI (CAKI-1 renal)?
**A.** 12.1 µM

**Q.** What about the GI50 (786-0 renal) of the same compound?
**A.** 0.95 µM

**Q.** What about the TGI (786-0 renal) of the same compound?
**A.** 2.49 µM

**Q.** What about the GI50 (M14 melanoma) of the same compound?
**A.** 0.807 µM

**Q.** And the TGI (M14 melanoma)?
**A.** 2.53 µM

**Q.** What about the GI50 (SK-OV-3 ovarian) of the same compound?
**A.** 15.8 µM

**Q.** What about the TGI (SK-OV-3 ovarian) of the same compound?
**A.** > 41.1 µM

**Q.** And the GI50 (HCC-2998 colon)?
**A.** 5.71 µM

**Q.** And the TGI (HCC-2998 colon)?
**A.** 17.8 µM

**Q.** What about the GI50 (OVCAR-5 ovarian) of the same compound?
**A.** 2.93 µM

**Q.** And the TGI (OVCAR-5 ovarian)?
**A.** 24.6 µM

**Q.** And the GI50 (CCRF-CEM leukemia)?
**A.** 0.193 µM

**Q.** And the TGI (CCRF-CEM leukemia)?
**A.** 0.539 µM

**Q.** And the GI50 (UACC-62 melanoma)?
**A.** 2.43 µM

**Q.** What about the TGI (UACC-62 melanoma) of the same compound?
**A.** 11.5 µM

**Q.** And the GI50 (MOLT-4 leukemia)?
**A.** 0.335 µM

**Q.** What about the TGI (MOLT-4 leukemia) of the same compound?
**A.** 2.74 µM

**Q.** And the GI50 (A549 NSCLC)?
**A.** 3.29 µM

**Q.** What about the TGI (A549 NSCLC) of the same compound?
**A.** 12.7 µM
